Assay results reported in publication PMC8151276, “An Integrated Approach toward NanoBRET Tracers for Analysis of GPCR Ligand Engagement” (Molecules, 2021).
Each block holds one compound with its values, some of them ahead of it.

What was measured:
Format in all cases: binding
P2RY2 = target: T1, P2RY2 (Homo sapiens, UniProt P41231); experiment: NanoBRET screen HiBiT-P2RY2 in HEK293
T1 construct: purchased Promega (in-house HiBiT-GPCR construct library, NanoBRET)
Method: (§1) Each tracer candidate was screened across the entire library of HiBiT-GPCR constructs using NanoBRET as the detection modality. As depicted in Figure 4A, the specificity of interactions was evaluated through decrease in BRET due to competitive displacement of a bound tracer by excess parental compound. Each tracer was analyzed for binding to each HiBiT-GPCR fusion in the absence and in the presence of competing parental compound. Briefly, HEK293 cells were transfected with HiBiT-GPCR constructs diluted into promoterless DNA to reduce expression and maximize translocation to the cell surface. Each tracer candidate was then screened at concentrations of 1 μM and 0.1 μM across cells expressing these fusions. Cells were treated for 1.5 h with tracer either alone or in the presence of 20 μM competing parental compound (i.e., control). BRET was measured upon addition of purified LgBiT and subsequent complementation with HiBiT genetically fused to a GPCR. The specificity of interactions was assessed through a decrease in BRET signal due to competitive displacement of the bound tracer. To further gauge the robustness of these interactions, the fold response over the control (i.e., BRETtracer/BRETcontrol) was calculated. We chose a 1.5-fold response, which translates to ≥7-fold signal over noise as the minimal threshold required to score an interaction as positive. […]. Below we highlight the screening results obtained for our exemplary fluorescent tracers based on Clozapine, Amitriptyline and AZD1283.
(§2) HiBiT-GPCR DNA constructs were diluted in 10 mM Tris pH 8 to a final concentration of 0.01 μg/μL, arrayed in 96-well plates and stored at −20 °C. For transfection, HEK293 cells were suspended in Opti-MEM (without phenol red) supplemented with 2% fetal bovine serum (Seradigm) and 100 units/mL penicillin–streptomycin (Gibco) at a final concentration of 220,000 cells/mL and dispensed into white 96-well plates at 90 μL/well. Subsequent transfections and screens were carried using an Agilent Bravo Automated Liquid Handling Platform. First, the 96-well HiBiT DNA arrays were diluted 25-fold in Opti-MEM (without serum or phenol red) to a final concentration of 0.0004 μg/μL and 20 μL of the diluted DNAs were transferred into new 96-well plates. Next, promoterless carrier DNA (1 μg/μL) was diluted 25-fold (0.04 μg/μL) and then dispensed into the diluted arrays at 20 μL/well. Following brief mixing, Viafect transfection reagent (Promega) diluted 16-fold into Opti-MEM was dispensed into the plates at 40 μL/well. After mixing by pipetting, plates were incubated for 10 min on the pipetting station deck. The DNA-transfection reagent complexes were then added to plates containing cells. To facilitate the screen, 10 μL of DNA-transfection reagent complexes were added in duplicates to the top 4 and bottom 4 rows, resulting in two identical 48-well arrays per plate. Plates with transfected cells were incubated for 18–20 h at 37 °C/5% CO2. A screen of each tracer across the entire library using two different concentrations requires duplicate plates of transfected cells. Depending on the number of tracers being screened, transfections can be scaled up using the same ratios. The next day, for each tracer, four 20× screening solutions in tracer dilution buffer (Promega) were prepared: two duplicates at final concentration of 20 μM and two duplicates at a final concentration of 2 μM. A competing unmodified compound was added to one of each duplicate at a final concentration of 400 μM. The four resulting solutions were diluted 4-fold in Opti-MEM without serum or phenol red to generate 5× solutions (5 µM and 0.5 µM tracer +/− 100 μM competing compound). To screen the library, a BioTek MultiFlo FX liquid dispenser was used to dispense 22.5 µL of tracer solution to the top 4 rows and 22.5 µL tracer + competing compound solution to the 4 bottom rows. Plates were briefly mixed on an orbital shaker and incubated for 1.5 h at room temperature. […]

PTGER4 = target: T2, PTGER4 (Homo sapiens, UniProt P35408); experiment: NanoBRET screen HiBiT-PTGER4 in HEK293
T2 construct: purchased Promega (in-house HiBiT-GPCR construct library, NanoBRET)
T2 sequence (P35408 whole entry): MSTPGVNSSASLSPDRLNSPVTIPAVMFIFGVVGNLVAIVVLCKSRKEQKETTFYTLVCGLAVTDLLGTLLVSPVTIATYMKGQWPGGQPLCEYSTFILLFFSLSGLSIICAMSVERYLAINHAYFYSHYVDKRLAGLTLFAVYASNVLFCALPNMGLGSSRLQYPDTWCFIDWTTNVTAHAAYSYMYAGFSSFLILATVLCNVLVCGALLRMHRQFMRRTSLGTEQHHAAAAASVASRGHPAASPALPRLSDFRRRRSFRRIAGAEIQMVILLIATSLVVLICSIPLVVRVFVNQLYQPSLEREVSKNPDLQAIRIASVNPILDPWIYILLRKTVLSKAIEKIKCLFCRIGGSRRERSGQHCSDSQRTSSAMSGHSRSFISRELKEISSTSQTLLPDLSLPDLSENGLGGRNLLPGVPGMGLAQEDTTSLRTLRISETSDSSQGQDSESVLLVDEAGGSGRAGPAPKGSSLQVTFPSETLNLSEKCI
Method: as §1, §2

GCGR = target: T3, GCGR (Homo sapiens, UniProt P47871); experiment: NanoBRET screen HiBiT-GCGR in HEK293
T3 construct: purchased Promega (in-house HiBiT-GPCR construct library, NanoBRET)
T3 sequence (P47871 26-477): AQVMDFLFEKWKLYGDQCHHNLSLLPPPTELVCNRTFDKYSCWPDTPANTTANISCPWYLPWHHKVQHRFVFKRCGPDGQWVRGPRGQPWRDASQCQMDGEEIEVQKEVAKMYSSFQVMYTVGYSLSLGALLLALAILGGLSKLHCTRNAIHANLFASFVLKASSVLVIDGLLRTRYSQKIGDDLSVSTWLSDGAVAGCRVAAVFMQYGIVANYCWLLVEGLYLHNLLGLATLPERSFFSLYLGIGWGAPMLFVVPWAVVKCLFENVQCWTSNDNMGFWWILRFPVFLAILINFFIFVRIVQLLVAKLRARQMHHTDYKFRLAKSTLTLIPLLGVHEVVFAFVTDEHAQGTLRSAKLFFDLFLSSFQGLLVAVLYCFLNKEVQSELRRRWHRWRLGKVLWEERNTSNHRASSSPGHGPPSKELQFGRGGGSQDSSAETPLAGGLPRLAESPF
Method: as §1, §2

PTGIR = target: T4, PTGIR (Homo sapiens, UniProt P43119); experiment: NanoBRET screen HiBiT-PTGIR in HEK293
T4 construct: purchased Promega (in-house HiBiT-GPCR construct library, NanoBRET)
T4 sequence (P43119 whole entry): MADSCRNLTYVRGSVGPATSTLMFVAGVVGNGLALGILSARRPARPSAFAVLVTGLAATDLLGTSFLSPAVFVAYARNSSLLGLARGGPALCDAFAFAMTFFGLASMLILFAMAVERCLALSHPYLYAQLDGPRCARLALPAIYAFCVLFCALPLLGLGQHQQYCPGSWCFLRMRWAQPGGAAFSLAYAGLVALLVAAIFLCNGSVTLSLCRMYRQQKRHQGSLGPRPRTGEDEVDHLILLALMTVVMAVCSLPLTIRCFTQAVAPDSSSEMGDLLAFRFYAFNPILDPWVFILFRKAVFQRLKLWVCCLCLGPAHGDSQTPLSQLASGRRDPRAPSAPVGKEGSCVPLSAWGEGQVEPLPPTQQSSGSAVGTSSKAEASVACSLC
Method: as §1, §2

XCR1 = target: T5, XCR1 (Homo sapiens, UniProt P46094); experiment: NanoBRET screen HiBiT-XCR1 in HEK293
T5 construct: purchased Promega (in-house HiBiT-GPCR construct library, NanoBRET)
T5 sequence (P46094 1-333): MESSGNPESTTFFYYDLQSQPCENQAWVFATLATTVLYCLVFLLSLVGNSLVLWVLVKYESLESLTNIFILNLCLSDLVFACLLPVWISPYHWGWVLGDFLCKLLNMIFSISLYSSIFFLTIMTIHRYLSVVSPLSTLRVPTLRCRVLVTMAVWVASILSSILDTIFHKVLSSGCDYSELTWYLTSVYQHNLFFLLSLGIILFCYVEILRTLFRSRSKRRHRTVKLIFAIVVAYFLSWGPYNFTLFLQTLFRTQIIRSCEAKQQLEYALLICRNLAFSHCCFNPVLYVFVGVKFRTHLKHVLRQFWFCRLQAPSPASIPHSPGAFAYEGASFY
Method: as §1, §2

[1] = tracer at 0.1μM, listed as amitriptyline-b-2-NB590
[2] = tracer at 1μM, listed as amitriptyline-b-2-NB590

T1 sequence (P41231 whole entry): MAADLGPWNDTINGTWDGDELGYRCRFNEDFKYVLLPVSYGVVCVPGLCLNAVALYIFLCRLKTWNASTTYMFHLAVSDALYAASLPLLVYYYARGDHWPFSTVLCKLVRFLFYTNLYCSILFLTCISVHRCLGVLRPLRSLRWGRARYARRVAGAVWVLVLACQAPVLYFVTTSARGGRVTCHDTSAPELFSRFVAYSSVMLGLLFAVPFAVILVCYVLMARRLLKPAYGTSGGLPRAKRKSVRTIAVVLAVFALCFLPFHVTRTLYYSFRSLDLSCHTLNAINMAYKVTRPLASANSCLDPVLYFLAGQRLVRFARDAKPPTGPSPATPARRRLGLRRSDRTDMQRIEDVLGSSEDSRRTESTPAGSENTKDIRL

- NanoBRET Fold Response (P2RY2; P2RY2, 0.1μM): 1.08
- NanoBRET Fold Response (P2RY2; P2RY2, 1μM): 1.12
- NanoBRET Fold Response (PTGER4; PTGER4, 0.1μM): 1.03
- NanoBRET Fold Response (PTGER4; PTGER4, 1μM): 1.02
- NanoBRET Fold Response (GCGR; GCGR, 0.1μM): 1.05
- NanoBRET Fold Response (GCGR; GCGR, 1μM): 1.12
- NanoBRET Fold Response (PTGIR; PTGIR, 0.1μM): 1.04
- NanoBRET Fold Response (PTGIR; PTGIR, 1μM): 1.07
- NanoBRET Fold Response (XCR1; XCR1, 0.1μM): 1.04
- NanoBRET Fold Response (XCR1; XCR1, 1μM): 1.00
Compound: CCOC(=O)c1cc(C#N)c(N2CCC(C(=O)NS(=O)(=O)Cc3ccccc3/C=C/C(=O)NCCNC(=O)CCc3ccc4n3[B-](F)(F)[N+]3=C(c5ccc[nH]5)C=CC3=C4)CC2)nc1C [AZD1283-1-NB590]

- NanoBRET Fold Response (P2RY2; P2RY2, tracer 0.1μM): 1.01
- NanoBRET Fold Response (P2RY2; P2RY2, tracer 1μM): 1.00
- NanoBRET Fold Response (PTGER4; PTGER4, tracer 0.1μM): 1.05
- NanoBRET Fold Response (PTGER4; PTGER4, tracer 1μM): 1.03
- NanoBRET Fold Response (GCGR; GCGR, tracer 0.1μM): 0.95
- NanoBRET Fold Response (GCGR; GCGR, tracer 1μM): 1.04
- NanoBRET Fold Response (PTGIR; PTGIR, tracer 0.1μM): 1.03
- NanoBRET Fold Response (PTGIR; PTGIR, tracer 1μM): 1.03
- NanoBRET Fold Response (XCR1; XCR1, tracer 0.1μM): 1.11
- NanoBRET Fold Response (XCR1; XCR1, tracer 1μM): 0.87
Compound: N#CN=C(NCCCOc1cccc(CN2CCCCC2)c1)NCCNC(=O)CCOCCOCCOCCOCCNC(=O)CCc1ccc2n1[B-](F)(F)[N+]1=C(c3ccc[nH]3)C=CC1=C2 [Aminopotentidine-2-NB590]

- NanoBRET Fold Response (P2RY2; 0.1μM tracer): 0.93
- NanoBRET Fold Response (P2RY2; 1μM tracer): 0.93
- NanoBRET Fold Response (PTGER4; 0.1μM tracer): 1.06
- NanoBRET Fold Response (PTGER4; 1μM tracer): 0.96
- NanoBRET Fold Response (GCGR; 0.1μM tracer): 1.01
- NanoBRET Fold Response (GCGR; 1μM tracer): 1.10
- NanoBRET Fold Response (PTGIR; 0.1μM tracer): 0.94
- NanoBRET Fold Response (PTGIR; 1μM tracer): 1.06
- NanoBRET Fold Response (XCR1; 0.1μM tracer): 1.33
- NanoBRET Fold Response (XCR1; 1μM tracer): 1.18
Compound: COc1ccc2c(n1)c(CCNC(C)=O)cn2CCNC(=O)CCc1ccc2n1[B-](F)(F)[N+]1=C(c3ccc[nH]3)C=CC1=C2 [Azamelatonin-1-NB590]

The next lines start with the compound.

Compound: CN(C)CCC=C1c2ccccc2CCc2ccc(C(=O)NCCNC(=O)CCOCCOCCOCCOCCNC(=O)CCc3ccc4n3[B-](F)(F)[N+]3=C(c5ccc[nH]5)C=CC3=C4)cc21 [Amitriptyline-a-2-NB590]
- NanoBRET Fold Response (P2RY2; tracer at 0.1μM): 1.00
- NanoBRET Fold Response (P2RY2; tracer at 1μM): 1.05
- NanoBRET Fold Response (XCR1; tracer at 0.1μM): 1.05
- NanoBRET Fold Response (XCR1; tracer at 1μM): 0.96

Compound: CN(C)CCC=C1c2ccccc2CCc2ccc(C(=O)NCCNC(=O)CCOCCOCCOCCOCCNC(=O)CCc3ccc4n3[B-](F)(F)[N+]3=C(c5ccc[nH]5)C=CC3=C4)cc21 [Amitriptyline-b-2-NB590]
- NanoBRET Fold Response (P2RY2; [1]): 1.04
- NanoBRET Fold Response (P2RY2; [2]): 0.92
- NanoBRET Fold Response (PTGER4; tracer at 0.1μM): 0.99
- NanoBRET Fold Response (PTGER4; tracer at 1μM): 1.04
- NanoBRET Fold Response (GCGR; GCGR, tracer 0.1μM): 0.91
- NanoBRET Fold Response (GCGR; GCGR, tracer 1μM): 1.03
- NanoBRET Fold Response (PTGIR; PTGIR, tracer 0.1μM): 0.99
- NanoBRET Fold Response (PTGIR; PTGIR, tracer 1μM): 0.98
- NanoBRET Fold Response (XCR1; [1]): 0.92
- NanoBRET Fold Response (XCR1; [2]): 0.83

Compound: CN(CCC=C1c2ccccc2CCc2ccccc21)C(=O)CCOCCOCCOCCOCCNC(=O)CCc1ccc2n1[B-](F)(F)[N+]1=C(c3ccc[nH]3)C=CC1=C2 [Amitriptyline-e-2-NB590]
- NanoBRET Fold Response (P2RY2; tracer at 1μM): 0.98
- NanoBRET Fold Response (XCR1; tracer at 1μM): 0.99
